Results as given in ChEMBL document CHEMBL1201862, “PubChem BioAssay data set” (2004).
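Tested at 5 concentrations; 48 h exposure; 96-well plates; endpoints linearly interpolated, else capped at highest concentration. The concentration for 50% growth inhibition is given as GI50.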 Active and inactive are the calls of the source. Cut-off read from the data, not from the text of the source: active = GI50 up to about 1.1 µM and inactive = higher.

Columns and labels:
Test in all cases: NCI tumour cell line growth inhibition, 48 h
786-0 = tested on: 786-0
A498 = tested on: A498
A549 = tested on: A549
ACHN = tested on: ACHN
BT-549 = tested on: BT-549
CAKI-1 = tested on: CAKI-1
CCRF-CEM = tested on: CCRF-CEM
COLO 205 = tested on: COLO 205
DU-145 = tested on: DU-145
EKVX = tested on: EKVX
HCT-116 = tested on: HCT-116
HCT-15 = tested on: HCT-15
HOP-62 = tested on: HOP-62
HOP-92 = tested on: HOP-92
HT-29 = tested on: HT-29
Hs-578T = tested on: Hs-578T
IGROV-1 = tested on: IGROV-1
K562 = tested on: K562
KM12 = tested on: KM12
LOX IMVI = tested on: LOX IMVI
M14 = tested on: M14
MCF7 = tested on: MCF7
MDA-MB-231 = tested on: MDA-MB-231
MDA-MB-435 = tested on: MDA-MB-435
MDA-N = tested on: MDA-N
MOLT-4 = tested on: MOLT-4
Malme-3M = tested on: Malme-3M
NCI-H23 = tested on: NCI-H23
NCI-H460 = tested on: NCI-H460
NCI-H522 = tested on: NCI-H522
NCI/ADR-RES = tested on: NCI/ADR-RES
OVCAR-3 = tested on: OVCAR-3
OVCAR-4 = tested on: OVCAR-4
OVCAR-5 = tested on: OVCAR-5
OVCAR-8 = tested on: OVCAR-8
PC-3 = tested on: PC-3
RPMI-8226 = tested on: RPMI-8226
RXF 393 = tested on: RXF 393
SF-268 = tested on: SF-268
SF-295 = tested on: SF-295
SF-539 = tested on: SF-539
SK-MEL-28 = tested on: SK-MEL-28
SK-MEL-2 = tested on: SK-MEL-2
SK-MEL-5 = tested on: SK-MEL-5
SK-OV-3 = tested on: SK-OV-3
SN12C = tested on: SN12C
SNB-19 = tested on: SNB-19
SNB-75 = tested on: SNB-75
SR = tested on: SR
SW-620 = tested on: SW-620
T47D = tested on: T47D
TK-10 = tested on: TK-10
U-251 = tested on: U-251
UACC-62 = tested on: UACC-62
UO-31 = tested on: UO-31
HCC 2998 = tested on: HCC 2998
HL-60 = tested on: HL-60
UACC-257 = tested on: UACC-257

Measured: GI50

CC(C)(C)c1ccc(O)c(C[N+](C)(C)C)c1
inactive: 786-0 > 100 µM | A498 47.5 µM | A549 > 100 µM | ACHN > 100 µM | BT-549 > 100 µM | CAKI-1 > 100 µM | CCRF-CEM > 100 µM | COLO 205 > 100 µM | DU-145 > 100 µM | EKVX 93.1 µM | HCT-116 > 100 µM | HOP-62 > 100 µM | HOP-92 > 100 µM | HT-29 > 100 µM | Hs-578T > 100 µM | IGROV-1 > 100 µM | K562 95.5 µM | KM12 > 100 µM | LOX IMVI > 100 µM | M14 > 100 µM | MCF7 > 100 µM | MDA-MB-231 > 100 µM | MDA-MB-435 > 100 µM | MDA-N > 100 µM | MOLT-4 > 100 µM | Malme-3M > 100 µM | NCI-H23 > 100 µM | NCI-H460 > 100 µM | NCI-H522 34.3 µM | NCI/ADR-RES > 100 µM | OVCAR-3 68.9 µM | OVCAR-4 > 100 µM | OVCAR-5 > 100 µM | OVCAR-8 > 100 µM | PC-3 > 100 µM | RPMI-8226 63.2 µM | RXF 393 > 100 µM | SF-268 > 100 µM | SF-295 > 100 µM | SF-539 > 100 µM | SK-MEL-28 > 100 µM | SK-MEL-2 > 100 µM | SK-MEL-5 49.4 µM | SK-OV-3 > 100 µM | SN12C > 100 µM | SNB-19 > 100 µM | SNB-75 > 100 µM | SR > 100 µM | SW-620 > 100 µM | T47D > 100 µM | TK-10 > 100 µM | U-251 > 100 µM | UACC-62 > 100 µM | UO-31 > 100 µM
> 100 µM: HCT-15

Nc1ccc2nc3ccc(N)cc3[n+](-c3ccccc3)c2c1
> 100 µM: HCT-15
inactive: 786-0 95.7 µM | A498 > 100 µM | A549 45.4 µM | ACHN 72.3 µM | BT-549 92.7 µM | CAKI-1 > 100 µM | CCRF-CEM > 100 µM | COLO 205 4.55 µM | DU-145 68.2 µM | EKVX > 100 µM | HCC 2998 > 100 µM | HCT-116 26.4 µM | HL-60 > 100 µM | HOP-62 43.3 µM | HOP-92 67 µM | HT-29 21.2 µM | Hs-578T 40.6 µM | IGROV-1 37.3 µM | K562 69.3 µM | KM12 36 µM | LOX IMVI 15.7 µM | M14 30.2 µM | MCF7 5.07 µM | MDA-MB-231 63.8 µM | MDA-MB-435 50.4 µM | MDA-N 49.8 µM | Malme-3M 18.6 µM | NCI-H23 22.8 µM | NCI-H460 32.8 µM | NCI-H522 11.6 µM | NCI/ADR-RES 14.9 µM | OVCAR-3 6.4 µM | OVCAR-4 > 100 µM | OVCAR-5 29.9 µM | PC-3 29.3 µM | RPMI-8226 > 100 µM | RXF 393 > 100 µM | SF-268 29 µM | SF-295 33.3 µM | SF-539 60.7 µM | SK-MEL-28 > 100 µM | SK-MEL-2 34.5 µM | SK-MEL-5 25.6 µM | SK-OV-3 > 100 µM | SN12C 25.4 µM | SNB-19 40.4 µM | SNB-75 42.1 µM | SR 98.6 µM | SW-620 37.3 µM | T47D 7.78 µM | TK-10 > 100 µM | U-251 38.5 µM | UACC-257 9.27 µM | UACC-62 64.7 µM | UO-31 > 100 µM
